Test [1] concerns the target T1, COX-1 (Homo sapiens, UniProt P23219). The test can be described thus: Assay of COX-1 activity from U937 cell microsomes. Further details: Assay of COX-1 Activity from U937 cell microsomes; endogenous in cells; host or cells: U937 cells, 100,000×g microsomal pellet. The test is classed as biochemical. As for the experimental part:
Assay of COX-1 Activity from U937 cell microsomes
U 937 cells are pelleted by centrifugation at 500×g for 5 min and washed once with phosphate-buffered saline and repelleted. Cells are resuspended in homogenization buffer consisting of 0.1 M Tris-HCl, pH 7.4, 10 mM EDTA, 2 μg/ml leupeptin, 2 μg/ml soybean trypsin inhibitor, 2 μg/ml aprotinin and 1 mM phenyl methyl sulfonyl fluoride. The cell suspension is sonicated 4 times for 10 sec and is centrifuged at 10,000×g for 10 min at 4° C. The supernatant is centrifuged at 100,000×g for 1 hr at 4° C. The 100,000×g microsomal pellet is resuspended in 0.1 M Tris-HCl, pH 7.4, 10 mM EDTA to approximately 7 mg protein/ml and stored at -80° C.
Microsomal preparations are thawed immediately prior to use, subjected to a brief sonication, and then diluted to a protein concentration of 125 μg/ml in 0.1 M Tris-HCl buffer, pH 7.4 containing 10 mM EDTA, 0.5 mM phenol, 1 mM reduced glutathione and 1 μM hematin. Assays are performed in duplicate in a final volume of 250 μl. Initially, 5 μl of DMSO vehicle or drug in DMSO are added to 20 μl of 0.1 M Tris-HCl buffer, pH 7.4 containing 10 mM EDTA in wells of a 96-deepwell polypropylene titre plate. 200 μl of the microsomal preparation are then added and pre-incubated for 15 min at room temperature before addition of 25 μl of […] arachidonic acid in […] Tris-HCl and 10 mM EDTA, pH 7.4. Samples are incubated for 40 min at room temperature and the reaction is stopped by the addition of 25 μl of 1 N HCl. Samples are neutralized with 25 μl of 1 N NaOH prior to quantitation of PGE2 content by radioimmunoassay (Dupont-NEN or Amersham assay kits). Cyclooxygenase activity is defined as the difference between PGE2 levels in samples incubated in the presence of arachidonic acid and ethanol vehicle.
In the assay, inhibition is determined by measuring the amount of prostaglandin E2 (PGE2) synthesized in the presence of arachidonic acid, cyclooxygenase-1 or cyclooxygenase-2 and a putative inhibitor.

Test [2] addresses T2, COX-2 (Homo sapiens, UniProt P35354).
T2 construct: incubation of human whole blood with LPS, which induces COX-2; endogenous in cells; host or cells: heparinized fresh whole blood of human volunteers, incubated with LPS for 24 h
T2 sequence (P35354 18-604): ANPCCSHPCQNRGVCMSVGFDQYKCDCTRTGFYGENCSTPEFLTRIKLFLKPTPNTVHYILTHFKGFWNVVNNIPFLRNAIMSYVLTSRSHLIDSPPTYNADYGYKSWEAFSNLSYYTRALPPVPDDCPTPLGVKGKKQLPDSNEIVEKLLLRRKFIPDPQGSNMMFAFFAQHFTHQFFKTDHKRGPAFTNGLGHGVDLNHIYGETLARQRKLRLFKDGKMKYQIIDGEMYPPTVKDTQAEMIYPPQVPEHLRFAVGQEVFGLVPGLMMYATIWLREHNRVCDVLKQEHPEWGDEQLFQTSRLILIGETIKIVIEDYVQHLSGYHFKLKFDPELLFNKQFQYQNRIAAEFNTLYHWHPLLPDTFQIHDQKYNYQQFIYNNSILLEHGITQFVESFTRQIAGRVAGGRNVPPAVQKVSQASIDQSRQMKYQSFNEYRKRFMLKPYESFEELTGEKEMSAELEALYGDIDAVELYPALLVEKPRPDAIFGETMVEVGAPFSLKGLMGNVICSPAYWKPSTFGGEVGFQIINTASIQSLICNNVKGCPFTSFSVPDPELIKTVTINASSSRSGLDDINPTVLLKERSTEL
Description: Human whole blood assay, COX-2 (LPS-induced PGE2 production). It is filed as cell-based. Particulars: human whole blood, LPS-induced PGE2, 24 h; read-out: COX-2 (IC50 mM) HWB. The text has this:
(§1) As well, platelets in whole blood contain a large amount of the COX-1 enzyme. Immediately following blood clotting, platelets are activated through a thrombin-mediated mechanism. This reaction results in the production of thromboxane B2 (TxB2) via activation of COX-1. Thus, the effect of test compounds on TxB2 levels following blood clotting can be examined and used as an index for COX-1 activity. Therefore, the degree of selectivity by the test compound can be determined by measuring the levels of PGE2 after LPS induction (COX-2) and TxB2 following blood clotting (COX-1) in the same assay.
A. COX-2 (LPS-induced PGE2 production)
Fresh blood is collected in heparinized tubes by venipuncture from both male and female volunteers. The subjects have no apparent inflammatory conditions and have not taken any NSAIDs for at least 7 days prior to blood collection. Plasma is immediately obtained from a 2 mL blood aliquot to use as blank (basal levels of PGE2).

In test [3] the target is T1, COX-1. Description: Human whole blood assay, COX-1 (clotting-induced TxB2 production). As to conditions: clotting-induced TxB2, 1 h, read-out: COX-1 (IC50 mM) HWB. More on the design: platelets in whole blood contain a large amount of the COX-1 enzyme; endogenous in cells; host or cells: fresh human whole blood without anticoagulant (platelets), clotted 1 h at 37° C. It is filed as cell-based. The procedure: as §1, with “Human whole blood provides a protein and cell-rich milieu appropriate for the study of biochemical efficacy of anti-inflammatory compounds such as selective COX-2 inhibitors. […] This is consistent with the observation that COX-2 inhibitors have no effect on PGE2 production in normal blood. These inhibitors are active only after incubation of human whole blood with LPS, which induces COX-2. This assay can be used to evaluate the inhibitory effect of selective COX-2 inhibitors on PGE2 production. As” for “As”
B. COX-1 (Clotting-induced TxB2 production)
Fresh blood is collected into vacutainers containing no anticoagulants. […] The tubes are vortexed and incubated at 37° C. for 1 hour to allow blood to clot. At the end of incubation, serum is obtained by centrifugation (12,000×g for 5 min.). […]

Test [4] addresses T2, COX-2. Description: Whole cell assay for COX-2 using CHO transfected cell line CHO[hCOX-2], inhibition of PGE2 synthesis. The test is classed as cell-based. Particulars: CHO[hCOX-2] cells, 10 μM AA, PGE2; read-out: COX-2 (IC50 mM) CHO.
Description: Whole cell assays for COX-2 and COX-1 using CHO transfected cell lines
Chinese hamster ovary (CHO) cell lines which have been stably transfected with an eukaryotic expression vector pCDNAIII containing either the human COX-1 or COX-2 cDNA's are used for the assay. These cell lines are referred to as CHO [hCOX-1] and CHO [hCOX-2], respectively. For cyclooxygenase assays, CHO[hCOX-1] cells from suspension cultures and CHO[hCOX-2] cells prepared by trypsinization of adherent cultures are harvested by centrifugation (300×g, 10 min) and washed once in HBSS containing 15 mM HEPES, pH 7.4, and resuspended in HBSS, 15 mM HEPES, pH 7.4, at a cell concentration of 1.5×10^6 cells/ml. Drugs to be tested are dissolved in DMSO to 66.7-fold the highest test drug concentration. […] Cells (0.3×10^6 cells in 200 μl) are preincubated with 3 μl of the test drug or DMSO vehicle for 15 min at 37° C. Working solutions of peroxide-free AA (5.5 μM and 110 μM AA for the CHO [hCOX-1] and CHO [COX-2] assays, respectively) are prepared by a 10-fold dilution of a concentrated AA solution in ethanol into HBSS containing 15 mM HEPES, pH 7.4. Cells are then challenged in the presence or absence of drug with the AA/HBSS solution to yield a final concentration of 0.5 μM AA in the CHO[hCOX-1] assay and a final concentration of 10 μM AA in the CHO[hCOX-2] assay. The reaction is terminated by the addition of 10 μl 1 N HCl followed by neutralization with 20 μl of 0.5 N NaOH. The samples are centrifuged at 300×g at 4° C. for 10 min, and an aliquot of the clarified supernatant is appropriately diluted for the determination of PGE2 levels using an enzyme-linked immunoassay for PGE2 (Correlate PGE2 enzyme immunoassay kit, Assay Designs, Inc.). Cyclooxygenase activity in the absence of test compounds is determined as the difference in PGE2 levels of cells challenged with arachidonic acid versus the PGE2 levels in cells mock-challenged with ethanol vehicle. Inhibition of PGE2 synthesis by test compounds is calculated as a percentage of the activity in the presence of drug versus the activity in the positive control samples.
[5] abbreviates: U937 cell microsomes, PGE2, read-out: COX-1 (IC50 mM) U-937.

One may read the IC50 as the midpoint of a concentration-inhibition curve.

T1 sequence (P23219 24-599): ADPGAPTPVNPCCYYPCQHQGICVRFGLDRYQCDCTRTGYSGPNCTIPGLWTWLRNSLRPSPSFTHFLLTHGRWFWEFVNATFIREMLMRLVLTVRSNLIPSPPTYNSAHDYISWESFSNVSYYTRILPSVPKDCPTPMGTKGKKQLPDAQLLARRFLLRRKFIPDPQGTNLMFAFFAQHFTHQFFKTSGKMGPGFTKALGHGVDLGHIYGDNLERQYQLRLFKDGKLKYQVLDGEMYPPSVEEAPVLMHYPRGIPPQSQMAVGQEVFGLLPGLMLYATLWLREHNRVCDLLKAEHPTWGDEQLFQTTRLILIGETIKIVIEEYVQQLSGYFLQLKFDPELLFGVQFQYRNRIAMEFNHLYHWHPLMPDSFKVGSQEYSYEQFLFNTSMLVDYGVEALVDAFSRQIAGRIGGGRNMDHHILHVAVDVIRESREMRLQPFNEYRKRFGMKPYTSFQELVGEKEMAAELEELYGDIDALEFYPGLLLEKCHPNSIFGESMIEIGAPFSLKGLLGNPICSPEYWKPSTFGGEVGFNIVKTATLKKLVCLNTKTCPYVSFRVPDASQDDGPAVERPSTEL

For the molecule `CS(=O)(=O)c1ccc(-c2cc(C(F)(F)F)cnc2N2CCCCC2)cc1` [Example 2, 3-(4-Methylsulfonyl)phenyl-2-piperidin-1-yl-5-trifluoromethylpyridine], the IC50 is 0.003 mM at COX-1 [1] (setting [5]), 0.0003 mM on COX-2 [2], over 0.1 mM on COX-1 [3] and 0.004 µM on COX-2 [4].
Turning to `CS(=O)(=O)c1ccc(-c2cc(C(F)(F)F)cnc2N2CCC(O)CC2)cc1` [Example 22, 3-(4-Methylsulfonyl)phenyl-2-(4-hydroxy)piperidin-1-yl-5-trifluoromethylpyridine], the half-maximal inhibitory concentration (IC50) was over 0.01 mM on COX-1 [1] (setting [5]), 0.0108 mM at COX-2 [2] and 0.03 µM on COX-2 [4].
Regarding `CS(=O)(=O)c1ccc(-c2cc(C(F)(F)F)cnc2N2CCCC(O)C2)cc1` (stereo not shown) [Example 23, 3-(4-Methylsulfonyl)phenyl-2-(3-hydroxy)piperidin-1-yl-5-trifluoromethylpyridine], the half-maximal inhibitory concentration (IC50) against COX-1 [1] is over 0.01 mM; at COX-2 [2], 0.0075 mM; on COX-2 [4], 0.03 µM.
Take `CS(=O)(=O)c1ccc(-c2cc(C(F)(F)F)cnc2N2CCC(F)(F)CC2)cc1` [Example 24, 2-(4,4-Difluoro)piperidin-1-yl-3-(4-methylsulfonyl)phenyl-5-trifluoromethylpyridine]: the IC50 on COX-1 [1] (setting [5]) was over 0.01 mM; on COX-2 [2], 0.0103 mM; on COX-2 [4], 0.02 µM.
For the molecule `CS(=O)(=O)c1ccc(-c2cc(C(F)(F)F)cnc2N2CCCC(F)(F)C2)cc1` [Example 25, 2-(3,3-Difluoro)piperidin-1-yl-3-(4-methylsulfonyl)phenyl-5-trifluoromethylpyridine], the IC50 on COX-1 [1] (setting [5]) was over 0.01 mM; at COX-2 [2], 0.0047 mM; at COX-2 [4], 0.08 µM.
As for `CS(=O)(=O)c1ccc(-c2cc(C(F)(F)F)cnc2N2CCC(F)CC2)cc1` [Example 26, 2-(4-Fluoro)piperidin-1-yl-3-(4-methylsulfonyl)phenyl-5-trifluoromethylpyridine], the concentration for half-maximal inhibition (IC50) at COX-1 [1] (setting [5]) is 0.003 to 0.01 mM; on COX-2 [2], 0.0017 mM; on COX-2 [4], 0.01 µM.
`CS(=O)(=O)c1ccc(-c2cc(C(F)(F)F)cnc2N2CCOCC2)cc1` [Example 27, 3-(4-Methylsulfonyl)phenyl-2-morpholin-4-yl-5-trifluoromethylpyridine]: the IC50 on COX-1 [1] (setting [5]) is over 0.01 mM; on COX-2 [2] it was 0.0036 mM; on COX-2 [4], 0.06 µM.
As to `CS(=O)(=O)c1ccc(-c2cc(C(F)(F)F)cnc2N2CCSCC2)cc1` [Example 28, 3-(4-Methylsulfonyl)phenyl-2-thiomorpholin-4-yl-5-trifluoromethylpyridine], the concentration for half-maximal inhibition (IC50) on COX-1 [1] (setting [5]) was 0.003 to 0.01 mM; on COX-2 [2], 0.0014 mM; on COX-2 [4], 0.03 µM.

The values are drawn from US6004950A, “2-aminopyridines as inhibitors of cyclooxygenase-2” (Merck Frosst Canada, Inc., priority 1998, dated 1999).
